Among the test systems are OVCAR-4; HT-29; HOP-92; A549; U-251; NCI-H226; CCRF-CEM; UACC-257; COLO 205; KM-20L2; SK-MEL-5; SW-620; HCC 2998; CAKI-1; A498; OVCAR-3; HL-60; NCI-H460; RPMI-8226.
Holding throughout (assay): NCI-60 cell line screen, 48 h

Structures are written as SMILES.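 Cultured in 96-well plates, cells were exposed to test compound for 48 hours across five concentrations. Here, GI50 denotes the concentration required for 50% inhibition of growth.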 Active and inactive are the calls of the source. Rule as the data show it: active = GI50 up to about 1.1 µM and inactive = higher.

For the compound `COC1=C(Br)C(=O)c2nc(C)ccc2C1=O`, the GI50 in the assay with OVCAR-4 was 13.3 µM (inactive); in the assay with HT-29 it was 19.4 µM (inactive); in the assay on HOP-92, 7.18 µM (inactive); in the assay with A549 it was 20.3 µM (inactive); in the assay on U-251, 15.1 µM (inactive); in the assay on NCI-H226 it was 22.8 µM (inactive). The GI50 in the assay on CCRF-CEM is 0.871 µM (active); in the assay on UACC-257, 13.6 µM (inactive); in the assay on COLO 205, 12.1 µM (inactive); in the assay with KM-20L2 it was 19 µM (inactive); in the assay on SK-MEL-5, 18.1 µM (inactive); with SW-620, 8.15 µM (inactive). For the same compound, the GI50 was 18.1 µM (inactive) with HCC 2998; 15.6 µM (inactive) with CAKI-1; 22 µM (inactive) in the assay with A498; 7.46 µM (inactive) in the assay with OVCAR-3; 0.993 µM (active) in the assay on HL-60; 15.8 µM (inactive) in the assay with NCI-H460.
In the case of `CCN(CC)c1ccc(/N=C2/C=CC(=C(C#N)C#N)c3ccccc32)c(C)c1`, the GI50 is 1.88 µM (inactive) in the assay with OVCAR-4; 3.24 µM (inactive) in the assay on HT-29; 0.324 µM (active) in the assay on HOP-92; 2.18 µM (inactive) in the assay with A549; 1.56 µM (inactive) in the assay on U-251; 1.18 µM (inactive) in the assay on CCRF-CEM. The GI50 in the assay with UACC-257 is 2.16 µM (inactive); with RPMI-8226 it was 1.38 µM (inactive); in the assay on COLO 205 it was 2.64 µM (inactive); with KM-20L2, 1.95 µM (inactive); in the assay on SK-MEL-5, 1.58 µM (inactive); in the assay on SW-620 it was 1.58 µM (inactive). In addition, the GI50 in the assay on CAKI-1 was 1.72 µM (inactive); in the assay with OVCAR-3, 1.86 µM (inactive); in the assay on HL-60 it was 1.26 µM (inactive); with NCI-H460, 2.55 µM (inactive).
On to `Cc1ccc(C)c(NC(=O)CCc2nnc(S)[nH]2)c1`, for which the GI50 in the assay with OVCAR-4, in the assay with HT-29, in the assay on HOP-92, in the assay on A549, in the assay on U-251 and with NCI-H226 was > 100 µM (inactive) in each case. The GI50 with CCRF-CEM, in the assay on UACC-257, in the assay on RPMI-8226, in the assay on COLO 205, with KM-20L2 and in the assay on SK-MEL-5 was > 100 µM (inactive) each time. Further, the GI50 in the assay with SW-620 is 17.4 µM (inactive); in the assay on HCC 2998 it was > 100 µM (inactive); in the assay with CAKI-1, > 100 µM (inactive); in the assay with A498 it was > 100 µM (inactive); with OVCAR-3 it was > 100 µM (inactive); in the assay with NCI-H460, > 100 µM (inactive).
Consider `CCOc1cc2c[n+](C)c3c4cc(OC)c(OC)cc4ccc3c2cc1OC`, for which the GI50 was > 100 µM (inactive) with OVCAR-4; 13.6 µM (inactive) with HT-29; > 100 µM (inactive) with HOP-92; > 100 µM (inactive) in the assay on A549; > 100 µM (inactive) in the assay with U-251; > 100 µM (inactive) in the assay with NCI-H226. Besides, the GI50 with CCRF-CEM is 20.8 µM (inactive); with UACC-257 it was > 100 µM (inactive); in the assay on RPMI-8226 it was > 100 µM (inactive); in the assay on COLO 205 it was > 100 µM (inactive); in the assay with KM-20L2, > 100 µM (inactive); in the assay on SK-MEL-5, > 100 µM (inactive). The GI50 in the assay on SW-620 was > 100 µM (inactive); with HCC 2998, > 100 µM (inactive); with CAKI-1, > 100 µM (inactive); with OVCAR-3, > 100 µM (inactive); in the assay on HL-60, 97.5 µM (inactive); in the assay with NCI-H460 it was > 100 µM (inactive).
`Cc1cccc(C)c1NC(=O)C(=O)CC(=O)c1cccc([N+](=O)[O-])c1`: the GI50 in the assay with OVCAR-4, in the assay on HT-29, in the assay with HOP-92, with A549, in the assay with U-251 and with NCI-H226 was > 100 µM (inactive) in each case. Further, the GI50 in the assay on CCRF-CEM, in the assay with UACC-257, in the assay with RPMI-8226, with COLO 205, with KM-20L2 and in the assay on SK-MEL-5 was > 100 µM (inactive) each time. For the same compound, the GI50 in the assay on SW-620, in the assay on CAKI-1, with A498, in the assay on OVCAR-3, in the assay on HL-60 and in the assay on NCI-H460 was > 100 µM (inactive) each time.
For `CSc1nc(-c2ccccc2)nc(N2CCOCC2)[s+]1`, the GI50 with OVCAR-4 was > 100 µM (inactive); in the assay with HT-29, 53.1 µM (inactive); in the assay with A549, > 100 µM (inactive); with U-251, 92.7 µM (inactive); in the assay on NCI-H226, > 100 µM (inactive); in the assay on CCRF-CEM, 22.3 µM (inactive). Also, the GI50 was 37 µM (inactive) with COLO 205; > 100 µM (inactive) in the assay on KM-20L2; > 100 µM (inactive) with SK-MEL-5; > 100 µM (inactive) in the assay with SW-620; > 100 µM (inactive) with HCC 2998; > 100 µM (inactive) in the assay on A498. Moreover, the GI50 is > 100 µM (inactive) in the assay with OVCAR-3, 42.8 µM (inactive) in the assay with HL-60 and 39 µM (inactive) in the assay with NCI-H460.
On to `Cc1ccc(S(=O)(=O)c2ccc(NC(=O)SCCC(=O)O)cc2)cc1`, for which the GI50 in the assay on OVCAR-4, with HT-29, with A549, with U-251, in the assay with NCI-H226 and in the assay on CCRF-CEM was > 100 µM (inactive) each time. Moreover, the GI50 in the assay with UACC-257, in the assay on RPMI-8226, in the assay with COLO 205, in the assay with KM-20L2, in the assay on SW-620 and in the assay on HCC 2998 was > 100 µM (inactive) in each case. The GI50 in the assay on CAKI-1, in the assay with A498, with OVCAR-3, with HL-60 and in the assay with NCI-H460 was > 100 µM (inactive) each time.
For the compound `NC(=S)N/N=C(\C(=O)Nc1cccc([N+](=O)[O-])c1)c1nc2ccc([N+](=O)[O-])cc2nc1O`, the GI50 is > 100 µM (inactive) with OVCAR-4; > 100 µM (inactive) in the assay with HT-29; > 100 µM (inactive) with HOP-92; 91.2 µM (inactive) in the assay on A549; > 100 µM (inactive) with U-251; > 100 µM (inactive) in the assay on NCI-H226. Also, the GI50 is 34.8 µM (inactive) with CCRF-CEM; 7.8 µM (inactive) in the assay with UACC-257; > 100 µM (inactive) in the assay with RPMI-8226; > 100 µM (inactive) with COLO 205; 37.2 µM (inactive) in the assay on KM-20L2; 30.9 µM (inactive) in the assay with SK-MEL-5. The GI50 is > 100 µM (inactive) in the assay on SW-620; 21.9 µM (inactive) in the assay on HCC 2998; > 100 µM (inactive) in the assay with A498; 19.9 µM (inactive) with HL-60; 74.6 µM (inactive) in the assay on NCI-H460.
With `NCCCNCCSSCCCCS(=O)O`, the GI50 is 14.6 µM (inactive) in the assay with OVCAR-4; 39.8 µM (inactive) in the assay on HT-29; > 100 µM (inactive) with HOP-92; 59.8 µM (inactive) in the assay on A549; > 100 µM (inactive) in the assay with U-251; 57.8 µM (inactive) in the assay on NCI-H226. Also, the GI50 with UACC-257 was 17.2 µM (inactive); with RPMI-8226, 26.1 µM (inactive); with COLO 205, 16.4 µM (inactive); in the assay with KM-20L2, > 100 µM (inactive); with SK-MEL-5, 17.2 µM (inactive); in the assay on SW-620, 30.4 µM (inactive). The GI50 is > 100 µM (inactive) in the assay with HCC 2998; 75.5 µM (inactive) in the assay on CAKI-1; > 100 µM (inactive) in the assay on A498; 19.9 µM (inactive) in the assay with OVCAR-3; 10.4 µM (inactive) in the assay with HL-60; 65.9 µM (inactive) with NCI-H460.
For `[Zn+2][N+]12CCN3CCN4CCN(CC1)[PH]432` (stereo not given), the GI50 in the assay with OVCAR-4, with HT-29, in the assay with A549, in the assay on U-251, in the assay on NCI-H226 and in the assay with CCRF-CEM was > 100 µM (inactive) each time. Moreover, the GI50 in the assay with UACC-257, in the assay with RPMI-8226, with COLO 205, with KM-20L2, in the assay on SK-MEL-5 and in the assay on SW-620 was > 100 µM (inactive) in each case. Also, the GI50 with HCC 2998, with A498, in the assay with OVCAR-3, with HL-60 and in the assay with NCI-H460 was > 100 µM (inactive) each time.
Regarding `COc1ccc(S(=O)(=O)NNS(C)(=O)=O)cc1`, the GI50 with OVCAR-4 was > 100 µM (inactive); in the assay on HT-29, > 100 µM (inactive); in the assay with A549, > 100 µM (inactive); in the assay on U-251, > 100 µM (inactive); with NCI-H226 it was > 100 µM (inactive); in the assay with CCRF-CEM, 70 µM (inactive). Besides, the GI50 in the assay with UACC-257, in the assay with RPMI-8226, in the assay with COLO 205, in the assay on KM-20L2, with SK-MEL-5 and in the assay with SW-620 was > 100 µM (inactive) each time. For the same compound, the GI50 in the assay with HCC 2998, with CAKI-1, in the assay on A498 and in the assay with HL-60 was > 100 µM (inactive) throughout.
For the compound `CC(=O)Nc1ccc(-c2nnc(SCC(=O)Nc3ccc(C)cc3)o2)cc1`, the GI50 is 17.7 µM (inactive) with OVCAR-4; 17 µM (inactive) with HT-29; 18.4 µM (inactive) in the assay with HOP-92; 40.3 µM (inactive) with A549; 19.4 µM (inactive) in the assay with U-251; 27.5 µM (inactive) with NCI-H226. The GI50 with CCRF-CEM is 24.3 µM (inactive); in the assay on UACC-257, 20.3 µM (inactive); with RPMI-8226, 26.2 µM (inactive); in the assay on COLO 205, 17.7 µM (inactive); in the assay with KM-20L2 it was 19.5 µM (inactive); in the assay with SK-MEL-5 it was 14.7 µM (inactive). In addition, the GI50 is 19.1 µM (inactive) in the assay with SW-620; 11.9 µM (inactive) with CAKI-1; 22.4 µM (inactive) in the assay on OVCAR-3; 27.8 µM (inactive) with HL-60; 23.2 µM (inactive) with NCI-H460.

Source of the values: ChEMBL document CHEMBL1201862, “PubChem BioAssay data set” (2004).
